Test results from US11109593B2, “Isoxazolin-5-one derivative and herbicide containing same as active ingredient” (HOKKO CHEMICAL INDUSTRY CO., LTD., priority 2017, dated 2021).

Columns and labels:
Format in all cases: in vivo
Echinochloa crus-galli [1] = assay: Test Example 1: herbicidal effect test by treatment of rice paddy soil (immediately after seeding); settings: 120 g/10a active ingredient, dry weight vs untreated area, 14 days after treatment
How it was run: (§1)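 Application occurs immediately after seeding, with diluted emulsion added to paddy water (about 3 cm deep) over puddled, fertilized soil at 120 g active ingredient per 10 ares. Herbicidal rate is calculated from mean dry weight against untreated controls 14 days later.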

Scirpus juncoides [2] = assay: as above; settings: 120 g/10a active ingredient, dry weight vs untreated area, 14 days after treatment
How it was run: as §1

[3] = test system: broad leaf weeds (Lindernia pyxidaria and Monochoria vaginalis); assay: as above; settings: 120 g/10a active ingredient, dry weight vs untreated area, 14 days after treatment
How it was run: as §1

Echinochloa crus-galli [4] = assay: Test Example 2: herbicidal effect test by treatment during growing period in paddy rice cultivation (seven days after seeding); settings: 120 g/10a active ingredient, assessed 14 days after treatment, dry weight vs untreated area
How it was run: (§2)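 Seeds sown 0–1 cm deep in puddled, fertilised paddy soil with about 3 cm standing water in a glass greenhouse. Diluted emulsion dropped into the water seven days after seeding at 120 g active ingredient per 10 ares. Herbicidal rate (%) from mean dry weight vs untreated, duplicate, 14 days after treatment.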

Scirpus juncoides [5] = assay: as above; settings: 120 g/10a active ingredient, assessed 14 days after treatment, dry weight vs untreated area
How it was run: as §2

[6] = test system: broad leaf weeds (Lindernia pyxidaria and Monochoria vaginalis); assay: as above; settings: 120 g/10a active ingredient, assessed 14 days after treatment, dry weight vs untreated area
How it was run: as §2

Amaranthus viridis [7] = assay: Test Example 3: herbicidal effect test by treatment of dry field farming soil (one day after seeding); settings: 120 g/10a active ingredient, evaluated 14 days after treatment
How it was run: (§3)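 Alluvial dry-field soil in pots, top 1 cm mixed with 20 seeds per weed species. One day after seeding, the water-diluted emulsion was sprayed onto the soil surface at 100 L per 10 ares (120 g active ingredient per 10 ares). Duplicate pots; herbicidal rate (%) from plant dry weight versus untreated, 14 days after treatment.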

Chenopodium album [8] = assay: as above; settings: 120 g/10a active ingredient, evaluated 14 days after treatment
How it was run: as §3

Echinochloa crus-galli [9] = assay: as above; settings: 120 g/10a active ingredient, evaluated 14 days after treatment
How it was run: as §3

southern crabgrass [10] = assay: as above; settings: 120 g/10a active ingredient, evaluated 14 days after treatment
How it was run: as §3

Amaranthus viridis [11] = assay: Test Example 4: herbicidal effect test by treatment of leave and stem in dry field farming (seven days after seeding); settings: 120 g/10a active ingredient; emulsion sprayed seven days after seeding; evaluated 14 days after treatment
How it was run: (§4)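 Twenty seeds per species were mixed into the top 1 cm of alluvial soil in 36 cm^2 pots; emulsions were sprayed seven days after seeding at 100 L per 10 ares (120 g active ingredient per 10 ares). Herbicidal rate (%) = {1 − treated/untreated mean dry weight} × 100, 14 days after treatment, duplicate.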

Chenopodium album [12] = assay: as above; settings: 120 g/10a active ingredient; emulsion sprayed seven days after seeding; evaluated 14 days after treatment
How it was run: as §4

Echinochloa crus-galli [13] = assay: as above; settings: 120 g/10a active ingredient; emulsion sprayed seven days after seeding; evaluated 14 days after treatment
How it was run: as §4

southern crabgrass [14] = assay: as above; settings: 120 g/10a active ingredient; emulsion sprayed seven days after seeding; evaluated 14 days after treatment
How it was run: as §4

Compound	Herbicidal rate (%) Echinochloa crus-galli (Echinochloa crus-galli [1]) [%]	Herbicidal rate (%) Scirpus juncoides (Scirpus juncoides [2]) [%]	Herbicidal rate (%) Lindernia pyxidaria [3] [%]	Herbicidal rate (%) Monochoria vaginalis [3] [%]	Herbicidal rate (%) Echinochloa crus-galli (Echinochloa crus-galli [4]) [%]	Herbicidal rate (%) Scirpus juncoides (Scirpus juncoides [5]) [%]	Herbicidal rate (%) Lindernia pyxidaria [6] [%]	Herbicidal rate (%) Monochoria vaginalis [6] [%]	herbicidal rate, Amaranthus viridis (Amaranthus viridis [7]) [%]	herbicidal rate, Chenopodium album (Chenopodium album [8]) [%]	herbicidal rate, Echinochloa crus-galli (Echinochloa crus-galli [9]) [%]	herbicidal rate, southern crabgrass (southern crabgrass [10]) [%]	herbicidal effect (herbicidal rate), Amaranthus viridis (Amaranthus viridis [11]) [%]	herbicidal effect (herbicidal rate), Chenopodium album (Chenopodium album [12]) [%]	herbicidal effect (herbicidal rate), Echinochloa crus-galli (Echinochloa crus-galli [13]) [%]	herbicidal effect (herbicidal rate), southern crabgrass (southern crabgrass [14]) [%]
Cc1c(Cc2ccccc2NS(=O)(=O)C(F)(F)F)c(=O)on1C1CCCCC1 [Compound 1-142]	100	90	100	90	100	90	90	100	70	90	100	90	60	40	90	80
CCC(C)Cn1oc(=O)c(Cc2ccccc2N(C(=O)OCC(C)C)S(=O)(=O)C(F)(F)F)c1C (stereo not shown) [Compound 1-674]	100	90	90	90	100	90	70	90	40	40	80	50	60	50	70	80
CCC(C)n1oc(=O)c(Cc2ccccc2N(C(=O)C2CC2)S(=O)(=O)C(F)(F)F)c1C (stereo not shown) [Compound 1-404]	90	90	90	90	90	90	90	90	90	90	90	90	40	40	90	90
CCCCCC(c1ccccc1)n1oc(=O)c(Cc2ccccc2NS(=O)(=O)C(F)(F)F)c1C (stereo not shown) [Compound 1-215]	100	90	100	80	90	90	90	80	40	40	50	50	50	40	40	50
CC(=O)N(c1ccccc1Cc1c(C)n(C(C)(C)C)oc1=O)S(=O)(=O)C(F)(F)F [Compound 1-293]	90	90	90	90	90	90	90	90	90	90	90	90	40	40	90	90
CCC(=O)N(c1ccccc1Cc1c(C)n(CCSC)oc1=O)S(=O)(=O)C(F)(F)F [Compound 1-320]	90	90	90	90	90	90	90	90	90	90	90	90	40	40	90	90
Cc1c(Cc2ccccc2N(S(=O)(=O)C(F)(F)F)S(=O)(=O)C(F)(F)F)c(=O)on1CC[S+](C)[O-] (stereo not shown) [Compound 1-1005]	90	90	60	70	90	90	70	90	40	40	60	40	40	40	60	40
CCN(CC)C(=O)N(c1ccccc1Cc1c(C)n(C(C)c2ccccc2)oc1=O)S(=O)(=O)C(F)(F)F (stereo not shown) [Compound 1-886]	90	90	90	90	90	90	90	90	90	90	90	90	40	40	90	90
Cc1c(Cc2cccc(Cl)c2NS(=O)(=O)C(F)(F)F)c(=O)on1C(C)C [Compound 1-33]	80	100	90	90	60	80	60	60	0	40	90	70	0	40	90	40
CCS(=O)(=O)N(c1ccccc1Cc1c(C)n(CCSC)oc1=O)S(=O)(=O)C(F)(F)F [Compound 1-916]	90	90	90	90	90	90	90	90	90	90	90	90	40	40	90	90
